Measurements: patent publication US12168781B2, “Production method for T cells or NK cells, medium for culturing T cells or NK cells, method for culturing T cells or NK cells, method for maintaining undifferentiated state of undifferentiated T cells, and growth-accelerating agent for T cells or NK cells” (KIRIN HOLDINGS KABUSHIKI KAISHA, priority 2018, dated 2024)
Marks after values point to notes of the source that are not given here.

Tested on: T-iPS-T cells
Test: Number of viable T-iPS-T cells under feeder-free culture (CD3/CD28 Dynabeads, Cell Count Reagent SF, absorbance 450 nm/650 nm)
Format: cell-based, human
Details: T-iPS-T cells after 1st expansion, 6 days, DMSO control 0.225 ± 0.017
Description: T-iPS-T cells (1,500 cells/well) after 1st expansion were seeded and cultured in RPMI-1640 medium (SIGMA, R8758) supplemented with 15% FBS (CORNING, 35-076-CV, 35076104R), 1% PSG (SIGMA, G1146), PAA (50 μg/mL, Nacalai Tesque, 03420-52), ITS-G, IL-7 (5 ng/mL), IL-12 (50 ng/mL), IL-15 (5 ng/mL), IL-18 (50 ng/mL), IL-21 (20 ng/mL), and z-VAD-fmk (10 μM). The cells were stimulated by adding CD3/CD28 Dynabeads (Gibco, 11131D, the “Dynabeads” is a registered trademark) (4,500 beads/well) thereto, and 1,080 compounds [MedChemExpress, Apoptosis Compound Library (HY-L003), Cell Cycle/DNA Damage Compound Library (HY-L004), JAK/STAT Compound Library (HY-L008), MAPK Compound Library (HY-L010), NF-kappaB Compound Library (HY-L014), PI3K/Akt/mTOR Compound Library (HY-L015), and Wnt/Hedgehog/Notch Compound Library (HY-L020)] were added thereto (one type per well) at a final concentration of 1 μM, and then, the cells were cultured at 37° C. under 5% CO2.
DMSO (0.1%) that is a solvent for the compound was used as a control. After 6 days, the number of viable cells was measured using Cell Count Reagent SF (Nacalai Tesque, 07553) and a microplate reader (SoftMax Pro 5.X, Molecular Devices, 450 nm/650 nm).
A calibration curve for cell number was set as follows. When measuring the number of viable cells, 12-point serial dilution was performed for the same cells as those used in the screening, and the cells were seeded (0 to 1,536,000 cells/well) in RPMI-1640 medium supplemented with 15% FBS, 1% PSG, PAA, ITS-G, IL-7 (5 ng/mL) and IL-15 (5 ng/mL). The number of viable cells was measured together with the screening samples, and a calibration curve for WST-8 assay was formed.
In order to further evaluate the results obtained in Example 4, reproducibility was evaluated. As a method therefor, the same method as in Example 4 was used to carry out culturing and evaluation. As compounds, 20 compounds were selected and used among the compounds used in Example 4 including berbamine, and DMSO (0.1%) that is a solvent for the compound was used as a control. Note that in a statistical analysis, a Student's t-test was used (*: p<0.05).
The effect of a berbamine derivative on the proliferation of T cells was verified. As a method therefor, T-iPS-T cells after 1st expansion were cultured in the same manner as in Example 4, and berbamine (BBM) or each of 13 types of derivatives [BBMD1 to 13, Hebei Sundia MediTech Company Ltd.] was added thereto (one type per well) at a final concentration of 0.1 nM, 1 nM, 10 nM, 100 nM, or 1 μM, and then, the cells were cultured at 37° C. under 5% CO2. DMSO (0.1%) that is a solvent for the compound was used as a control.
After culturing for 6 days, the number of viable cells was measured using Cell Count Reagent SF (Nacalai Tesque, 07553) and a microplate reader (SoftMax Pro 5. X, Molecular Devices, 450 nm/650 nm), and the OD value was used as data. Note that in a statistical analysis, a Student's t-test was used (*: p<0.05). 1.

SMILES	number of viable cells (OD value) (0.1 nM)	number of viable cells (OD value) (1 nM)	number of viable cells (OD value) (10 nM)	number of viable cells (OD value) (100 nM)	number of viable cells (OD value) (1 μM)
COc1cc2c3cc1Oc1c(OC)c(OC)cc4c1C(Cc1ccc(OS(=O)(=O)c5ccccc5)c(c1)Oc1ccc(cc1)CC3N(C)CC2)N(C)CC4 (stereo not shown) [BBMD1]	0.257 ± 0.024	0.268 ± 0.009 *	0.289 ± 0.033 *	0.415 ± 0.039 **	0.529 ± 0.101 **
COc1cc2c3cc1Oc1c(OC)c(OC)cc4c1C(Cc1ccc(CCCCBr)c(c1)Oc1ccc(cc1)CC3N(C)CC2)N(C)CC4 (stereo not shown) [BBMD2]	–	0.269 ± 0.059	0.295 ± 0.028 *	0.437 ± 0.059 **	0.493 ± 0.036 ***
COc1cc2c3cc1Oc1c(OC)c(OC)cc4c1C(Cc1ccc(OCc5ccc([N+](=O)[O-])cc5)c(c1)Oc1ccc(cc1)CC3N(C)CC2)N(C)CC4 (stereo not shown) [BBMD3]	0.245 ± 0.013	0.298 ± 0.021 *	0.325 ± 0.077^	0.581 ± 0.025 ****	0.195 ± 0.002
COc1cc2c3cc1Oc1c(OC)c(OC)cc4c1C(Cc1ccc(OC(=O)C(C)(C)C)c(c1)Oc1ccc(cc1)CC3N(C)CC2)N(C)CC4 (stereo not shown) [BBMD4]	0.234 ± 0.024	0.245 ± 0.037	0.286 ± 0.019 *	0.470 ± 0.023 ***	0.470 ± 0.053 **
COc1cc2c3cc1Oc1c(OC)c(OC)cc4c1C(Cc1ccc(OC(=O)c5cc6ccccc6[nH]5)c(c1)Oc1ccc(cc1)CC3N(C)CC2)N(C)CC4 (stereo not shown) [BBMD5]	0.246 ± 0.001	0.245 ± 0.016	0.285 ± 0.032 *	0.477 ± 0.064 **	0.186 ± 0.001
COc1cc2c3cc1Oc1c(OC)c(OC)cc4c1C(Cc1ccc(OC(=O)c5ccc(Br)cc5)c(c1)Oc1ccc(cc1)CC3N(C)CC2)N(C)CC4 (stereo not shown) [BBMD6]	0.248 ± 0.019	0.248 ± 0.016	0.290 ± 0.023 *	0.472 ± 0.077 **	0.208 ± 0.004
COc1cc2c3cc1Oc1c(OC)c(OC)cc4c1C(Cc1ccc(CCCCN5CCCC5)c(c1)Oc1ccc(cc1)CC3N(C)CC2)N(C)CC4 (stereo not shown) [BBMD7]	0.230 ± 0.018	0.266 ± 0.013 *	0.258 ± 0.024^	0.346 ± 0.041 **	0.550 ± 0.026 ****
COc1cc2c3cc1Oc1c(OC)c(OC)cc4c1C(Cc1ccc(OC(=O)CCNC(=O)OC(C)(C)C)c(c1)Oc1ccc(cc1)CC3N(C)CC2)N(C)CC4 (stereo not shown) [BBMD8]	0.268 ± 0.022 *	0.227 ± 0.028	0.261 ± 0.029^	0.326 ± 0.051 *	0.462 ± 0.027 ***
COc1cc2c3cc1Oc1c(OC)c(OC)cc4c1C(Cc1ccc(OCCCN)c(c1)Oc1ccc(cc1)CC3N(C)CC2)N(C)CC4 (stereo not shown) [BBMD9]	0.264 ± 0.030	0.255 ± 0.004 *	0.221 ± 0.017^	0.268 ± 0.020 *	0.328 ± 0.016**
COc1ccc(C(=O)NCCCOc2ccc3cc2Oc2ccc(cc2)CC2c4cc(c(OC)cc4CCN2C)Oc2c(OC)c(OC)cc4c2C(C3)N(C)CC4)cc1 (stereo not shown) [BBMD10]	0.255 ± 0.013	0.274 ± 0.007 **	0.295 ± 0.023 *	0.494 ± 0.038 ***	0.301 ± 0.008 **
